# According to article PMC8624133, “10th Trends in Medical Mycology Held on 8 to 11 October 2021, Aberdeen, Scotland, Organized by the European Confederation of Medical Mycology (ECMM)” (Journal of Fungi, 2021):
# Read-outs that look alike come from different tables or passages of the source.
# Assays:
# [1] = test system: Candida non-albicans; assay: In vitro fluconazole susceptibility, neonatal invasive candidiasis; format: cell-based
# [2] = test system: environmental yeasts from a lagoon; assay: organism not typed; format: cell-based
# [3] = test system: Candida isolates; format: cell-based, Candida spp.; details: E-Test strips
# [4] = test system: Candida sp.; format: cell-based
# [5] = test system: Sporothrix brasiliensis; assay: Murine subcutaneous sporotrichosis model; format: in vivo, Balb/c mice; details: oral gavage once a day, 30 days; ITZ 50 mg/kg; DD 1, 5 or 10 mg/kg
# Method: Materials & Methods: 50 Balb/c mice, male, five to seven-week-old, were subcutaneous infected (left footpad) by a clinical isolate of S. brasiliensis (5.4 × 10^7 yeast/mice). Treatments started seven days post-inoculation (p.i) in all five groups (10 mice/each): G1 control group (placebo—receiving just the diluent of the drugs), G2 treatment group (itraconazole—ITZ 50 mg/kg); G3 to G5 DD treatment groups, 1, 5 and 10 mg/kg, respectively. All mice were treated once a day by oral gavage, for 30 consecutive days. Physical conditions and behavior were daily evaluated, and individual weight was weekly determined. At the 32nd day p.i. (48 h after the end of the treatments) animals were euthanasied and lung, liver, brain, kidneys, testicle and footpad were recovered aseptically and homogenized to mycological analysis. Fungal burden in each organ was measured by quantitatively counting colony-forming units (CFU). The determination of colony forming units (CFU)/gram of tissue (g) of S. brasiliensis in internal organs of groups were compared by non-parametric tests using Kruskal-Wallis combined with Wilcoxon. The weight loss assay was calculated considering the percentage of loss and/or increase between the value corresponding to the fungal inoculation day and to the end of the treatment.
# [6] = test system: A. flavus complex; details: n = 6, EUCAST clinical breakpoints
# [7] = test system: R. delemar 99–880; assay: CLSI M38 in vitro susceptibility; format: cell-based, Rhizopus delemar; details: Rhizopus delemar, read-out: MIC at 100% inhibition of growth
# Method: Methods & Materials: In vitro susceptibility was conducted by the CLSI M38 method using a clinical isolate of Rhizopus delemar (a common cause of mucormycosis). ICR mice were immunosuppressed with cyclophosphamide and cortisone acetate on days −2, +3, and +8, relative to infection with intratracheally instilled R. delemar. […] Mice survival through Day +21 served as the primary endpoint.
# [8] = test system: C. auris; assay: Postantifungal effect (PAFE); format: cell-based, Candida auris; details: 2 and 4 mg/L, 1 h exposure, six blood isolates
# Method: Materials & Methods: PAFE experiments were performed in microtitre plates, with six C. auris clinical blood isolates (Hospital La Fe, Valencia, Spain). […] Cell pellets were re-suspended in RPMI medium and added back to the microtitre plates. Sample for viable counts were taken at 0, 2, 4, 6, 8, 24 and 48 h after re-suspension, plated in triplicate onto Sabouraud dextrose agar and incubated for 24–48 h at 37 °C. Experiments were performed in duplicate for each isolate on different days. PAFE was calculated as follows: PAFE = T − C. Where “T” is the time needed by the treated fungal cultures to growth 1 log after drug removal and “C” is the time needed by the control group to growth 1 log after last washout. Additionally, maximum log reductions of time-kill and PAFE experiments were compared and used to calculate a PAFE/time-kill index to determine the percentage of cell killing that could be attributed to the PAFE.
# [9] = test system: A. terreus sensu stricto isolates; assay: AMB MIC (EUCAST) of isolates used for time-kill; format: cell-based; details: Aspergillus terreus
# Method: Materials & Methods: Tolerance is the ability of a “susceptible isolate” to grow in the presence of AMB above the MIC; tolerant fungi are characterized by a longer minimum duration of killing time (MDK) than susceptible isolates. We investigated AMB-MDKs of A. terreus sensu stricto isolates (n = 4) representing susceptible (S < […]) and resistant (R > […]) phenotypes (EUCAST). Time-kill curve analysis (99% killing of the initial population) was performed in RPMI 1640 and AM3 media at different AMB concentrations, and in parallel, the germination rate was determined microscopically.
# [10] = Universal voriconazole prophylaxis in lung transplant recipients, retrospective; format: in vivo, human
# Method: Materials & Methods: Retrospective study of all adult lung transplant recipients at Copenhagen University Hospital during 2010 to 2019. […] Failure to complete prophylaxis was defined as recieving <9 of the intented 12 weeks of prophylaxis. Liver and kidney toxicity was graded according to Common Terminology Criteria for Adverse Events (CTCAE) criteria (grades 0–4 according to degree of elevation). Grade ≥2 adverse events were classified as high. Lung biopsies were evaluated for acute rejection (grade ≥A2). Calcineurin-inhibitor (CNI) plasma-concentrations were evaluated for off-target episodes. High and low episodes were defined as ≥2 concecutive samples 20% above or below target range limits, respectively. […] Acute rejections were classified as related to low CNI if they occurred 0–30 days from low CNI. Grade ≥2 kidney toxicity was considered related to high CNI if it occurred between two days prior to high CNI to 7 days after.
# [11] = test system: Asp. niger; assay: Triazole resistance agar screening, four-well plate; details: RPMI agar, 1 µg/mL, 14 isolates
# Method: All the isolates were identified phenotypically. […] Fungal spores were suspended in normal saline (0.85%) and adjusted to 0.5 McFarland and 50 μL was plated in each well. […] Plates were incubated at 35–37 °C for 72 h in ambient air. The presence or absence of growth was observed visually at 24 h, 48 h, and 72 h.
# [12] = test system: Scedosporium apiospermum; assay: EUCAST reference method MIC; format: cell-based
# Method: Case presentation: A patient presented with a bursitis of their left elbow. Six months before they were treated with lymphodepleting chemotherapy directly followed by B-cell associated CD19-specific chimeric antigen receptor (CAR) T cell therapy for recurrence of follicular lymphoma. They were considered immunocompromised, with total neutrophils and lymphocytes slightly below normal levels, absent B-cells, and a treatment associated persistent hypogammaglobulinaemia. Four weeks before presentation at our hospital they contacted their GP because of swelling and pain of their left elbow. Their GP aspirated fluid from their elbow, injected steroids and started antibiotics, but now there was recurrence of swelling and pain. Bursitis without arthritis was diagnosed by a rheumatologist and the bursa was surgically opened and drained, relieving pus. The patient was started on oral flucloxacillin and sent home. Two days later the culture of the pus from the bursa grew white colonies on a Sabouraud dextrose agar plate, showing long conidophores with large oval conidia on microscopy. […] Over the next few weeks the bursitis symptoms diminished. […] Voriconazole is considered first line treatment for Scedosporium infections. […] Eight weeks later there were no signs of bursitis and posaconazole was discontinued.
smiles,measurement,setting,value
OC(Cn1cncn1)(Cn1cncn1)c1ccc(F)cc1F [fluconazole],increase of clearance per 100 g increase in actual bodyweight,in vivo,16%
same,decrease of clearance per 10 µmol/L increase in creatinine concentration,once postnatal age was above 1 week,12%
same,volume of distribution,"one-compartment model, typical infant of 0.87 kg",0.844 L
same,estimated clearance,"one-compartment model, typical infant of 0.87 kg, serum creatinine 60 µmol/L, 41 preterm neonates, 146 plasma samples",0.0147 L/h
same,dose-dependent susceptible pathogens,[1],6%
same,in vitro resistant pathogens,[1],6%
same,isolates classified as resistant-like,"[2]; number of 71 yeasts, MIC at or above Candida breakpoint",Fifty-five
same,MIC,"[2]; range, read-out: MIC of resistant-like isolates",64 to 2050 µg/mL
same,comparative effectiveness among antifungals,[3],most effective antifungal
same,Susceptibility to fluconazole (share of isolates),[4]; 2019,66%
same,Susceptibility to fluconazole (share of isolates),[4]; full 12 month period in 2020,82%
same,Susceptibility to fluconazole (share of isolates),"[4]; overall, entire period reviewed",74%
same,Susceptibility to fluconazole (share of isolates),[4]; to date in January–April 2020,100%
CCC(C)n1ncn(-c2ccc(N3CCN(c4ccc(OCC5COC(Cn6cncn6)(c6ccc(Cl)cc6Cl)O5)cc4)CC3)cc2)c1=O (stereo not drawn) [itraconazole],fungal burden of internal organs vs placebo group,[5],lower fungal burden
same,isolates resistant,[6],17%
C[C@@H]1[C@H](O)[C@@H](C)/C=C/C=C/C=C/C=C/C=C/C=C/C=C/[C@H](O[C@@H]2O[C@H](C)[C@@H](O)[C@H](N)[C@@H]2O)C[C@@H]2O[C@](O)(C[C@@H](O)C[C@@H](O)[C@H](O)CC[C@@H](O)C[C@@H](O)CC(=O)O[C@H]1C)C[C@H](O)[C@H]2C(=O)O [amphotericin B],MIC,[7],0.06 µg/mL
same,PAFE,[8],3.5 to 6.5 h
same,MIC,"[9]; A. terreus 81 and 31, each",1 µg/mL
same,MIC,[9]; A. terreus 134,4 µg/mL
same,MIC,[9]; A. terreus 164,0.5 µg/mL
C[C@@H](c1ncncc1F)[C@](O)(Cn1cncn1)c1ccc(F)cc1F [voriconazole],low CNI plasma-concentration episode related to discontinuation of voriconazole,[10]; patients of the universal prophylaxis period,45%
same,failed to complete prophylaxis,"[10]; receiving <9 of the intended 12 weeks, 183 patients on voriconazole prophylaxis",62%
same,failure to complete prophylaxis due to hepatic toxicity,[10]; share of the 114 patients who failed to complete,72%
same,"isolates with growth only in voriconazole well, n (%)",[11]; 48 h,0
same,"isolates with growth only in voriconazole well, n (%)",[11]; 72 h,2 (14.28)
same,MIC,[12]; first isolate from bursa pus,0.5 µg/mL
same,MIC,"[12]; isolate two months later, under posaconazole",1 µg/mL
